# Laboratory results taken from US20140309171A1, “MARKER FOR BLOOD COAGULATION” (Universite Catholique De Louvain, priority 2011, published 2014).
# Entries after “also recorded” stand apart in the source; their conditions may differ.
# Tests used:
# Assay type in all cases: cell-based
# washed human platelets = test: Platelet aggregation, light transmission (Chrono-Log Aggregometer)
# Description: (§1) Washed human platelets (used in in vitro studies). Platelets were obtained from adult healthy volunteers in accordance with the Ethics Commission of our institution (Commission d'Ethique Biomédicale Hospitalo-Facultaire, Université catholique de Louvain). Whole blood was collected with butterfly needle 21G into Sodium Citrate 1:10 solution (S-monovette). Platelet-rich plasma (PRP) was obtained by 15 min centrifugation at 330 g. The platelets pellet was then washed in Tyrode modified buffer (135 mM NaCl, 12 mM NaHCO3, 1 mM Sodium Citrate, 2.9 mM KCl, 0.3 mM Na2HPO4, 1 mM MgCl2, 5 mM D-glucose, 10 mM Hepes, 0.35% bovine serum albumin (BSA), pH 7.4 at 37° C.) and resuspended to a density of 2.5 10^5 platelets/μl for the measurement of intracellular Ca^2+ or platelet aggregation. For Western Blot analysis, PRP with eptifibatide 4 μg/ml (Integriline, GlaxoSmithKline) and ectonucleotidase apyrase (grade I) 0.5 U/ml was layered over a density barrier of iodixanol (Optiprep®) that allowed the erythrocytes and leucocytes to pellet during centrifugation at 350 g for 15 min. The platelets, because of their small size, sediment much more slowly. After centrifugation at 800 g for 10 min, the resulting pellet was resuspended to a density of 2·10^5 platelets/μl in Tyrode modified buffer before treatment and lysis of samples.
# Light transmission during thrombin-induced platelet aggregation in human and murine PRP was recorded with a Chrono-Log Aggregometer at 37° C., under stirring condition (1200 crpm). The platelet suspension was incubated with dimethyl sulfoxide (DMSO, vehicle) or STO-609 (10 μM, Tocris) for 2 min before the addition of the thrombin (+/−0.03 U/ml). CaCl2 2 mM was added prior to the agonists.
# To evaluate the potential implication of CaMKKβ in platelet aggregation, washed human platelets were pre-incubated for 2 min with 10 μM STO-609, prior to treatment with thrombin or ADP.
# [1] = system: TXB2 formation in human platelets; test: Thromboxane B2 assay in platelet supernatants; conditions: 10 μM STO-609, 0.1 U/ml thrombin for 5 min
# Description: After 2 min pre-incubation with 10 μM STO-609 or DMSO, washed platelets were treated with 0.1 U/ml thrombin for 5 min. Negative controls corresponded to platelets activated by thrombin in the presence of 1 mM acetylsalicylic acid (ASA). Platelet suspensions were pelleted (quick speed), and TXB2 in the supernatants was assayed according to the manufacturers instructions (Enzo Life Sciences).
# [2] = system: Ser79 acetyl-CoA carboxylase (ACC) phosphorylation in human platelets; test: Western blot of phosphorylated (Ser79) ACC in human platelets; conditions: 10 μM STO-609, 0.1 U/ml thrombin
# [3] = system: AMPK Thr172 phosphorylation in human platelets; test: Western blot of AMPK Thr172 phosphorylation in human platelets; conditions: 10 μM STO-609, thrombin-treated human platelets (not shown)
# Description: as §1, with “min. […] Bound antibodies were detected by enhanced chemiluminescence (Thermofisher). […] Band intensities were quantified by scanning and processing image intensities with the program ImageJ (1.33 for Mac OS X).” for “min.”, “quantification” for “platelets, because”, “immunoblots presented in results was obtained after normalization using” for “their small size, sediment much more slowly. After centrifugation at 800 g for 10 min,”, “internal loading control.” for “resulting pellet was resuspended to a density of 2·10^5 platelets/μl in Tyrode modified buffer before treatment and lysis of samples.”
compound,measurement,setting,value
O=C(O)c1ccc2c3c1cccc3c(=O)n1c3ccccc3nc21 [STO-609],platelet aggregation caused by ADP (effect in words),"washed human platelets; 20 μM ADP, 10 μM STO-609",not inhibited
same,"thrombin-induced platelet aggregation, % of aggregation","washed human platelets; 0.025 U/ml thrombin + 10 μM STO-609, 2 min pre-incubation",11±4%
same,thrombin-induced platelet aggregation (effect in words),"washed human platelets; 0.025 U/ml thrombin, 10 μM STO-609",significantly inhibited; also recorded: prevents
same,thrombin-induced TXB2 formation,[1],not affect
same,"AMPK activation, as judged by phosphorylation of downstream Ser79 acetyl-CoA carboxylase (ACC)",[2],markedly reduced
same,"AMPK activation, as judged by phosphorylation of AMPK Thr172",[3],markedly reduced
